Test systems include DU-145 prostate; LOX IMVI melanoma; MDA-N; NCI-H460 lung; OVCAR-3 ovarian; SNB-19 CNS; UACC-62 melanoma; SNB-75 CNS; SW-620 colon; RPMI-8226 leukemia.
Common to all, as to test: inhibition of tumour cell growth, NCI panel, 48 h

Structures are written as SMILES.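 Protocol summary: plate cells (96-well), add compound at 5 concentrations, incubate 48 h, interpolate endpoints linearly. GI50 marks 50% less growth. TGI denotes the concentration required for complete inhibition of growth.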

With `O=C(CCc1cccc(O)c1)NCCc1cccc(O)c1`, the TGI in the assay on DU-145 prostate, in the assay on LOX IMVI melanoma, with MDA-N, in the assay on NCI-H460 lung, in the assay on OVCAR-3 ovarian and with SNB-19 CNS was greater than 100 µM throughout. Besides, the TGI in the assay with UACC-62 melanoma is greater than 100 µM.
Take `Cc1cn(C2CC(O)C(CO)C2C)c(=O)[nH]c1=O` (centres undefined): the TGI in the assay on LOX IMVI melanoma, in the assay with NCI-H460 lung, in the assay with OVCAR-3 ovarian, with SNB-19 CNS, in the assay with SNB-75 CNS and in the assay with SW-620 colon was greater than 100 µM throughout. This molecule had a TGI in the assay on UACC-62 melanoma greater than 100 µM.
With `COC12C=C/C(=C(/C(=O)OCc3ccncn3)C(=O)CCCCCCCCC3(OC)C=C/C(=C(/C(=O)OCc4ccncn4)C(=O)CCCCCCCC1)O3)O2`, the GI50 with DU-145 prostate was 0.484 µM; in the assay with LOX IMVI melanoma, 0.211 µM; in the assay with NCI-H460 lung, 0.319 µM; with OVCAR-3 ovarian it was 0.317 µM; in the assay with RPMI-8226 leukemia, 0.263 µM; in the assay on SNB-19 CNS it was 0.509 µM. In addition, the GI50 in the assay with SNB-75 CNS was 1.52 µM; in the assay with SW-620 colon, 0.303 µM. Besides, the TGI in the assay with DU-145 prostate is 2.72 µM; with LOX IMVI melanoma, 0.503 µM; with NCI-H460 lung, 1.02 µM; with OVCAR-3 ovarian, 0.903 µM; in the assay with RPMI-8226 leukemia, 0.995 µM; with SNB-19 CNS, 17.1 µM. The TGI with SNB-75 CNS was found to be 17.7 µM; with SW-620 colon, 1.14 µM.
Regarding `COc1cc(Oc2nc3ccccc3nc2C(=O)O)cc(OC)c1OC`, the TGI in the assay with DU-145 prostate, in the assay with LOX IMVI melanoma, in the assay on NCI-H460 lung, in the assay on OVCAR-3 ovarian, in the assay on RPMI-8226 leukemia and with SNB-19 CNS was greater than 100 µM in each case. Besides, the TGI with SNB-75 CNS, in the assay on SW-620 colon and in the assay with UACC-62 melanoma was greater than 100 µM in each case.
`O=[N+]([O-])c1ccc2c(c1)nc(Cc1ccccc1)n2C[C@@H]1CCCN2CCCCC12` (some centres undefined): the TGI with DU-145 prostate is greater than 100 µM; in the assay on LOX IMVI melanoma, 60.2 µM; with MDA-N it was 38.6 µM; with NCI-H460 lung, greater than 100 µM; in the assay with OVCAR-3 ovarian, greater than 100 µM; in the assay with SNB-19 CNS, greater than 100 µM. The results for the TGI with SNB-75 CNS, with SW-620 colon and in the assay with UACC-62 melanoma were greater than 100 µM, greater than 100 µM and 36.3 µM, respectively.
With `O=S(=O)(c1cc(Cl)ccc1Cl)N1CCN(S(=O)(=O)c2cc(Cl)ccc2Cl)CC1`, the TGI with DU-145 prostate was 29.6 µM; in the assay on MDA-N it was greater than 100 µM; in the assay on NCI-H460 lung, greater than 100 µM; in the assay on OVCAR-3 ovarian, greater than 100 µM; in the assay on SNB-19 CNS, greater than 100 µM; in the assay with SNB-75 CNS, greater than 100 µM. Besides, the TGI was greater than 100 µM in the assay on SW-620 colon and 2.48 µM with UACC-62 melanoma.
For `C(=N\Nc1ncc(-c2cc3cc4c(cc3o2)OCO4)s1)/c1c[nH]c2ccccc12`, the GI50 in the assay with DU-145 prostate is 0.739 µM; in the assay on LOX IMVI melanoma, 0.426 µM; with OVCAR-3 ovarian, 0.536 µM; in the assay on RPMI-8226 leukemia it was 1.55 µM; in the assay with SNB-19 CNS, 1.57 µM; in the assay on SNB-75 CNS, 1.4 µM. Further, the GI50 in the assay with SW-620 colon was 1.2 µM; in the assay on UACC-62 melanoma, 1.75 µM. In addition, the TGI is 3.31 µM in the assay with DU-145 prostate; 1.7 µM in the assay with LOX IMVI melanoma; 1.89 µM with OVCAR-3 ovarian; greater than 100 µM in the assay with RPMI-8226 leukemia; 6.25 µM in the assay on SNB-19 CNS; 2.89 µM in the assay with SNB-75 CNS. The TGI is 3 µM in the assay on SW-620 colon and 3.72 µM in the assay with UACC-62 melanoma.
For `CCN(CC)CCCCCCCCNc1c2ccc(Cl)cc2nc2ccc(OC)cc12`, the GI50 with DU-145 prostate is 1.55 µM; with LOX IMVI melanoma, 1.48 µM; with NCI-H460 lung, 0.883 µM; with OVCAR-3 ovarian, 1.91 µM; in the assay with RPMI-8226 leukemia it was 0.675 µM; with SNB-19 CNS, 1.81 µM. Besides, the GI50 is 1.49 µM in the assay on SNB-75 CNS, 1.02 µM with SW-620 colon and 1.8 µM with UACC-62 melanoma. In addition, the TGI with DU-145 prostate stood at 3.18 µM; in the assay with LOX IMVI melanoma, 4.94 µM; in the assay on NCI-H460 lung, 2.56 µM; in the assay on OVCAR-3 ovarian, 4.33 µM; in the assay with RPMI-8226 leukemia, 3.34 µM; in the assay with SNB-19 CNS it was 4.63 µM. In addition, the TGI in the assay with SNB-75 CNS came to 3.15 µM; in the assay with SW-620 colon it was 2.67 µM; with UACC-62 melanoma, 3.22 µM.
With `CN(C(=O)C12C3C4(C(=O)O)C1(C(=O)N(C)C(C)(C)C)C1C2(C(=O)O)C3(C(=O)N(C)C(C)(C)C)C14C(=O)N(C)C(C)(C)C)C(C)(C)C` (centres undefined), the TGI in the assay with DU-145 prostate, in the assay on LOX IMVI melanoma, with MDA-N, in the assay with NCI-H460 lung, in the assay on OVCAR-3 ovarian and in the assay with SNB-19 CNS was greater than 100 µM each time. Moreover, the TGI in the assay on SW-620 colon and in the assay on UACC-62 melanoma was greater than 100 µM in each case.
With `CCN1CCN(C(=O)[C@]23CC[C@@H](C)[C@H](C)[C@@H]2C2=CC[C@@H]4[C@@]5(C)C/C(=C/c6cccnc6)C(=O)C(C)(C)[C@@H]5CC[C@@]4(C)[C@]2(C)CC3)CC1`, the GI50 in the assay on DU-145 prostate is 2.08 µM; with LOX IMVI melanoma, 1.58 µM; with NCI-H460 lung, 1.78 µM; with OVCAR-3 ovarian it was 1.65 µM; with RPMI-8226 leukemia it was 2.18 µM; with SNB-19 CNS, 1.79 µM. Besides, the GI50 in the assay on SNB-75 CNS is 1.57 µM; with SW-620 colon, 1.9 µM; in the assay with UACC-62 melanoma it was 1.51 µM. For the same molecule, the TGI with DU-145 prostate was 4.21 µM; in the assay on LOX IMVI melanoma, 3.06 µM; with NCI-H460 lung, 3.45 µM; with OVCAR-3 ovarian it was 3.19 µM; in the assay on RPMI-8226 leukemia, 6.35 µM; with SNB-19 CNS, 3.74 µM. For the same molecule, the results for the TGI in the assay on SNB-75 CNS, in the assay with SW-620 colon and with UACC-62 melanoma were 8.91 µM, 4.14 µM and 2.96 µM, respectively.
As for `CC(=O)N1N=C(c2c(O)ccc3ccccc23)CC1C(=O)c1ccco1` (centres undefined), the TGI was greater than 100 µM with DU-145 prostate; 76.9 µM in the assay with MDA-N; greater than 100 µM in the assay with NCI-H460 lung; 44 µM in the assay with OVCAR-3 ovarian; 57.2 µM in the assay on RPMI-8226 leukemia; greater than 100 µM in the assay on SNB-75 CNS. In addition, the TGI in the assay on SW-620 colon was greater than 100 µM; in the assay on UACC-62 melanoma it was 32.8 µM.

Source of the values: PubChem BioAssay (NCI).
